Assay: xn = mol fraction of the nth substance listed
Settings: 298.15 K, Liquid

CCCCCCCCCl [1-chlorooctane] + CN1CCCC1=O
mass density [kg/m3]
Settings | x2 = 0.0969 | x2 = 0.2014 | x2 = 0.3097 | x2 = 0.4076 | x2 = 0.5021 | x2 = 0.6022 | x2 = 0.7005 | x2 = 0.8007 | x2 = 0.9008
100 kPa | 878 | 888.8 | 901.2 | 913.6 | 926.9 | 942.5 | 959.8 | 979.6 | 1002.2
500 kPa | 878.3 | 889.1 | 901.5 | 913.9 | 927.2 | 942.8 | 960 | 979.8 | 1002.4
1000 kPa | 878.6 | 889.4 | 901.9 | 914.3 | 927.5 | 943.1 | 960.3 | 980.1 | 1002.7
1500 kPa | 879 | 889.8 | 902.3 | 914.6 | 927.8 | 943.4 | 960.6 | 980.4 | 1003
2000 kPa | 879.4 | 890.2 | 902.5 | 914.9 | 928.2 | 943.7 | 960.9 | 980.7 | 1003.2
2500 kPa | 879.7 | 890.6 | 902.9 | 915.2 | 928.5 | 944.1 | 961.2 | 981 | 1003.5
2900 kPa | – | – | – | – | – | 944.4 | – | – | –
3000 kPa | 880.2 | 890.9 | 903.3 | 915.6 | 928.8 | – | 961.6 | 981.3 | 1003.8
3400 kPa | 880.5 | – | – | – | – | – | – | – | –
3500 kPa | – | 891.3 | 903.7 | 916 | 929.1 | 944.7 | 961.8 | 981.6 | 1004.1
4000 kPa | 880.8 | 891.6 | 904 | 916.3 | 929.5 | 945 | 962.2 | 981.9 | 1004.4
4400 kPa | – | – | – | 916.6 | – | – | – | – | –
4500 kPa | 881.2 | 892 | 904.4 | – | 929.8 | 945.3 | 962.4 | 982.2 | 1004.6
5000 kPa | 881.6 | 892.3 | 904.7 | 917 | 930.2 | 945.7 | 962.8 | 982.5 | 1004.9
5500 kPa | 882 | 892.7 | 905 | 917.3 | 930.4 | 946 | 963.1 | 982.8 | 1005.2
5900 kPa | – | – | – | – | 930.8 | – | – | – | –
6000 kPa | 882.3 | 893.1 | 905.4 | 917.6 | – | 946.3 | 963.4 | 983.1 | 1005.5
6500 kPa | 882.7 | 893.4 | 905.8 | 917.9 | 931.1 | 946.6 | 963.7 | 983.3 | 1005.8
7000 kPa | 883.1 | 893.8 | 906.1 | 918.4 | 931.5 | 946.9 | 964 | 983.6 | 1006.1
7400 kPa | 883.4 | – | – | – | – | – | – | – | –
7500 kPa | – | 894.1 | 906.4 | 918.6 | 931.8 | 947.2 | 964.3 | 983.9 | 1006.4
7900 kPa | 883.7 | – | – | – | – | – | – | – | –
8000 kPa | – | 894.4 | 906.7 | 918.9 | 932.1 | 947.5 | 964.6 | 984.2 | 1006.6
8500 kPa | 884.1 | 894.8 | 907 | 919.2 | 932.5 | 947.8 | 964.9 | 984.5 | 1007
9000 kPa | 884.4 | 895.1 | 907.4 | 919.6 | 932.8 | 948.1 | 965.2 | 984.8 | 1007.2
9500 kPa | 884.8 | 895.5 | 907.8 | 920 | 933.1 | 948.4 | 965.5 | 985.1 | 1007.5
9900 kPa | – | – | – | – | – | – | – | 985.4 | –
10000 kPa | 885.3 | 895.9 | 908.1 | 920.4 | 933.5 | 948.8 | 965.9 | – | 1007.8
10400 kPa | – | – | – | – | – | – | – | – | 1008
10500 kPa | 885.6 | 896.2 | 908.5 | 920.7 | 933.8 | 949.1 | 966.1 | 985.7 | –
10900 kPa | – | – | – | – | – | – | – | 986 | –
11000 kPa | 886 | 896.5 | 908.8 | 921.1 | 934.2 | 949.5 | 966.5 | – | 1008.3
11400 kPa | – | – | – | – | – | – | 966.7 | – | –
11500 kPa | 886.3 | 896.9 | 909.1 | 921.3 | 934.5 | 949.7 | – | 986.3 | 1008.6
11900 kPa | 886.6 | – | – | – | – | – | – | – | –
12000 kPa | – | 897.3 | 909.5 | 921.6 | 934.8 | 950.1 | 967 | 986.5 | 1008.8
12500 kPa | 887 | 897.6 | 909.8 | 922 | 935.1 | 950.4 | 967.3 | 986.8 | 1009.2
12900 kPa | – | – | – | – | – | 950.6 | – | – | –
13000 kPa | 887.4 | 897.9 | 910.1 | 922.3 | 935.4 | – | 967.6 | 987.1 | 1009.4
13500 kPa | 887.7 | 898.3 | 910.4 | 922.6 | 935.7 | 950.9 | 967.9 | 987.4 | 1009.7
13900 kPa | – | 898.5 | – | – | – | – | – | – | –
14000 kPa | 888.1 | – | 910.8 | 922.9 | 936 | 951.2 | 968.2 | 987.7 | 1009.9
14400 kPa | – | 898.9 | – | – | – | – | – | – | –
14500 kPa | 888.4 | – | 911.1 | 923.3 | 936.3 | 951.5 | 968.4 | – | 1010.1
14600 kPa | – | – | – | – | – | – | – | 988 | –
14900 kPa | – | – | – | – | – | – | – | – | 1010.4
15000 kPa | 888.7 | 899.2 | 911.4 | 923.5 | 936.6 | 951.8 | 968.8 | 988.2 | –
15400 kPa | – | 899.5 | – | – | – | – | – | – | –
15500 kPa | 889 | – | 911.7 | 923.9 | 936.9 | 952.1 | 969 | 988.4 | 1010.7
15900 kPa | – | – | – | – | 937.2 | – | 969.3 | – | –
16000 kPa | 889.4 | 899.9 | 912.1 | 924.2 | – | 952.4 | – | 988.7 | 1011
16500 kPa | 889.7 | 900.3 | 912.4 | 924.5 | 937.5 | 952.7 | 969.6 | 988.9 | 1011.2
17000 kPa | – | 900.6 | 912.8 | 924.9 | 937.8 | 953 | 970 | 989.2 | 1011.5
17100 kPa | 890.1 | – | – | – | – | – | – | – | –
17500 kPa | 890.4 | 900.9 | 913.1 | 925.2 | 938.1 | 953.2 | 970.2 | 989.5 | 1011.7
18000 kPa | 890.7 | 901.2 | 913.4 | 925.5 | 938.4 | 953.5 | 970.4 | 989.7 | 1012
18500 kPa | 891.1 | 901.5 | 913.7 | 925.7 | 938.7 | 953.8 | 970.8 | 990 | 1012.2
19000 kPa | 891.4 | 901.9 | 914.1 | 926.1 | 939.1 | 954.2 | 971 | 990.5 | 1012.5
19400 kPa | – | 902.2 | – | 926.4 | – | – | 971.4 | – | –
19500 kPa | 891.7 | – | 914.4 | – | 939.3 | 954.5 | – | 990.7 | 1012.8
20000 kPa | 892.1 | 902.6 | 914.7 | – | 939.8 | 954.8 | 971.7 | – | 1013.2
20100 kPa | – | – | – | 926.8 | – | – | – | 991 | –

From the NIST ThermoML archive (doi:10.1021/je7003758)
